The source of these data is publication PMC10766610, “DCAF1-based PROTACs with activity against clinically validated targets overcoming intrinsic- and acquired-degrader resistance” (Nature Communications, 2024).

Experiment [1] addresses T1, DCAF1(WDR) with additional 10 µM BTK (Homo sapiens, UniProt Q06187+Q9Y4B6, E1398S).
T1 construct: 2 nM human DCAF1(1073-1399)_E1398S-Avi-His; human BTK (G389-S659); His6 (C); His (PreScission site) (N); made in house; host or cells: Sf9 insect cells (both chains)
Briefly: DCAF1 TR-FRET, cooperative format with 10 µM BTK. It is filed as binding. Particulars: cooperative format (+ BTK in Fig. 6b); ± SD (n); read-out: IC50 Alpha DCAF1 TR-FRET. As for the experimental part:
Competition assay conditions consist of 20 µL total volume in white 384-well plates (Greiner), in 30 mM phosphate buffer pH 7.4 containing 140 mM NaCl, 0.01% Tween20, 1 mM TCEP and 1% final DMSO. Tested compounds at 14 different concentrations were pre-incubated at 22 °C for 30 min with a large excess of 10 µM human BTK (G389-S659) or 10 µM human BRD9-BD(130-250) in the cooperative assay or with buffer in standard binary assay. […] Samples were then incubated at 22 °C for 30 min before reading using a Tecan infinite M-1000 or PheraStar FSX (excitation 340 nm, emission 490 and 520 nm). DCAF1 protein was omitted in the negative control. IC50 fitting was carried out using an in-house developed software (Novartis Helios software application, unpublished, a publicly available alternative would be e.g., Graphpad Prism) using the methods described by Fomenko et al.[93] (regression algorithms for nonlinear dose-response curve fitting). Following normalization of activity values for the wells to % inhibition (% inhibition = [(high control-sample)/(high control-low control)] × 100). Data analysis could also be carried out using GraphPad Prism without prior normalization. The reported IC50 values are the average of at least two independent experiments.
(In general: In TR-FRET formats the signal depends on donor and acceptor labels being close together.)

The target of experiment [2] is T2, DCAF1(WDR) + BTK (Homo sapiens, UniProt Q06187+Q9Y4B6, E1398S).
T2 construct: BTK (389-659) or BRD9; His6 (C); His (PreScission site) (N); made in house; host or cells: Sf9 insect cells (both chains)
T2 sequence (Q9Y4B6 1073-1399 E1398S): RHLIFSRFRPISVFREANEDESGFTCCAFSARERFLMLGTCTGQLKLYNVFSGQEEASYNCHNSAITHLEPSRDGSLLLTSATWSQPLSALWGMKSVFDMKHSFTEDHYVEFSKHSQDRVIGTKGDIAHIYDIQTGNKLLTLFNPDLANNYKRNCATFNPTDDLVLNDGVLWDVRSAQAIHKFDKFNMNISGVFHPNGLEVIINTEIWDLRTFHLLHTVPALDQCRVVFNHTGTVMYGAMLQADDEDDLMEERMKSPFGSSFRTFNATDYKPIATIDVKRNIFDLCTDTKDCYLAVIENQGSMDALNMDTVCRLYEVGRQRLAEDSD
T2 sequence (Q06187 389-659): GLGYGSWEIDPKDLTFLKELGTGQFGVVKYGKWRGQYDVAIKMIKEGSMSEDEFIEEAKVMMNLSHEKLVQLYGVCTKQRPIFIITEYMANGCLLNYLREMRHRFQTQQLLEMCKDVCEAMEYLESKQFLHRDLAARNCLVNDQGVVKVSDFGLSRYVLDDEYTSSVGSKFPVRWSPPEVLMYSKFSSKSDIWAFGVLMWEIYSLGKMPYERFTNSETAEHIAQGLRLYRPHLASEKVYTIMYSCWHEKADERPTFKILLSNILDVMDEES
Description: SPR ternary binding assay, immobilized DCAF1(WDR), BTK (389-659) in buffer. The note with it: Fig. 6b. From the text:
Supplementary figure 8. SPR data of binary and ternary DCAF1-BTK PROTACs
without additional BTK as analytes. […] In
the middle panel the steady state fit responses are blotted against the PROTAC concentrations The
Source data are provided as a Source Data file

Experiment [3] addresses BTK (Homo sapiens, UniProt Q06187). Description: Intracellular BTK engagement NanoBRET, intact HEK293A cells. It is filed as cell-based. The note with it: 2 h, read-out: IC50 BTK target engagement. As for the experimental part:
Thus, HEK293A cells were batch-transfected by adding 1 μg pLenti6 BTK-Nanoluc vector and 9 μg Transfection Carrier DNA (pcDNA3.1 Hygro+) to 1 mL of Opti-MEM without phenol red (Thermo Fisher). After addition of 40 μL ViaFect (Promega) and incubation for 20 min, the DNA:lipid mixture was added to trypsinized HEK293A cells suspended at 2 × 10^5/mL in 10 ml growth medium. 100 μL of the resulting cell:DNA:lipid suspension was then seeded at 2 × 10^4 cells/well into white, clear-bottom 96-well plates (Costar) that were pre-coated with poly-D-Lysine by incubation for 60 min with 30 μL of a sterile-filtered solution of 0.1 mg PDL (Mpbio) dissolved in phosphate-buffered saline, followed by a wash with 200 μL sterile phosphate-buffered and airdrying. […] To measure BRET, NanoBRET NanoGlo substrate (Promega, final dilution of 1:1000) and Extracellular NanoLuc Inhibitor (Promega, final concentration 20 μM) were added, followed by quantification of donor and acceptor luminescence emission on a Pherastar FX (BMG Labtech) multimode reader using 460 nm band-pass and 610 nm long-pass filters, respectively. […]
The mBU values for each treated sample was then divided by the average mBU value determined based on four DMSO-treated vehicle control samples and multiplied by 100 to arrive at % of vehicle-treated control. […]
A general note: In BRET a luciferase serves as donor, and the signal depends on an acceptor being close.

Each structure is given as a SMILES string.

Sequence of BTK (Q06187 2-659 limits assumed): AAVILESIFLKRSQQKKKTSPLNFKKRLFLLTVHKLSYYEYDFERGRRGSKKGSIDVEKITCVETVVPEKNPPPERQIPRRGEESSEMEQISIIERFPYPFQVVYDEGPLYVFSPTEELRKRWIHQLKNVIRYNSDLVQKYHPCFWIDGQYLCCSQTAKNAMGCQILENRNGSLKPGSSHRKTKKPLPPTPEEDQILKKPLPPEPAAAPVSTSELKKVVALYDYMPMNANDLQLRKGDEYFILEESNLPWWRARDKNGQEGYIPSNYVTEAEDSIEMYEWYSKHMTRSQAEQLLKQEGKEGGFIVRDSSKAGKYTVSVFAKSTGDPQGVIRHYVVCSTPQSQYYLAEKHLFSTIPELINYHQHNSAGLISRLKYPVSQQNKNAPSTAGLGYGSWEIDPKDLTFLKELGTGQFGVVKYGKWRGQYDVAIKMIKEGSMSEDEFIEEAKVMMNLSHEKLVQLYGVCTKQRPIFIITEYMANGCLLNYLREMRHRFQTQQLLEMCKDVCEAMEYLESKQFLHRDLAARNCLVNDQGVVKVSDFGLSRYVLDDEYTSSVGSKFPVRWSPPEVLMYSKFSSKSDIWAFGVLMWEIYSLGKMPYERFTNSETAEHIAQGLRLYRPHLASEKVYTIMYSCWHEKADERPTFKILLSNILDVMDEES
T1 sequence (Q9Y4B6 1073-1399 E1398S): as the sequence (Q9Y4B6 1073-1399 E1398S) above
T1 sequence (Q06187 389-659): as the sequence (Q06187 389-659) above

Turning to `Cc1c(NC(=O)N2CC(O)(CC(C)(C)C)C2)cc(F)cc1-c1ncnc2[nH]c(-c3cnn(CC(=O)N4CCC5(CC4)CN(CCNC(=O)CCCC(=O)N4CCN(c6ccc7c(NCCN)nc(C8(c9ccc(Cl)cc9)CCCCC8)nc7c6)CC4)CCO5)c3)cc12` [DBt-10], the IC50 in experiment [1] was 82 ± 39 nM; in experiment [3] it was 1680 nM. Also, the Kd in experiment [2] came to 33 nM.
For `Cc1c(NC(=O)c2ccc(C(C)(C)O)cc2F)cc(F)cc1-c1ncnc2[nH]c(-c3ccc(CNCCOCCOCCOCCOCCOCCOCCOCCOCCOCCOCCOCCOCCC(=O)N4CCN(c5ccc6c(NCCN)nc(C7(c8ccc(Cl)cc8)CCCCC7)nc6c5)CC4)cc3)cc12` [DBt-5] the same measures were 282 ± 84 nM, 392 nM and 480 nM.

A word on the IC50: it is the midpoint of a concentration-inhibition curve. A word on the Kd: it is the equilibrium constant for the complex coming apart.
